Data taken from ChEMBL document CHEMBL5665443, “Enzyme Inhibitor Single Concentration assay results for EUbOPEN Chemogenomics Library” (2024).

What was measured:
Settings in all cases: Compound Concentration 10.0 uM, Hit No
[1] = target: Endonuclease 8-like 1 (Homo sapiens) (UniProt Q96FI4);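 further: fluorescence at 594 nm from quenched duplex DNA oligonucleotides released by NEIL1 cleavage and strand separation, reported as reduction of this enzyme activity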
Description: Inhibition of NEIL1 by quantifying inhibition of NEIL1-mediated cleavage and dissociation of quenched duplex DNA oligonucleotides, measured as fluorescence at 594 nm.

[2] = target: T1, Endonuclease III-like protein 1 (Homo sapiens) (UniProt P78549);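 further: enzyme assay tracking NTHL1 cutting and release of a quenched double-stranded DNA oligo substrate, read as fluorescence at 594 nm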
T1 sequence (whole entry): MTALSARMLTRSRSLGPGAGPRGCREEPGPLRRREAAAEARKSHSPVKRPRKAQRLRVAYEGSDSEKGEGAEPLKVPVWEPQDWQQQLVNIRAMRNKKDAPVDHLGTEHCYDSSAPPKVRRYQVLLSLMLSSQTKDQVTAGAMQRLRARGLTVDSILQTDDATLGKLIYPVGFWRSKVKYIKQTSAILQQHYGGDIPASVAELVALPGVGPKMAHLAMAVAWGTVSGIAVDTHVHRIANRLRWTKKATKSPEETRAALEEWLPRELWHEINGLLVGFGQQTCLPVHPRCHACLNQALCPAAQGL
Description: Inhibition of NTHL1 by quantifying inhibition of NTHL1-mediated cleavage and dissociation of quenched duplex DNA oligonucleotides, measured as fluorescence at 594 nm.

[3] = target: T2, Single-strand selective monofunctional uracil DNA glycosylase (Homo sapiens) (UniProt Q53HV7);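 further: enzymatic SMUG1 assay coupled with APE1, reading fluorescence at 594 nm released when a quenched double-stranded DNA oligonucleotide substrate is cleaved and separated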
T2 sequence (whole entry): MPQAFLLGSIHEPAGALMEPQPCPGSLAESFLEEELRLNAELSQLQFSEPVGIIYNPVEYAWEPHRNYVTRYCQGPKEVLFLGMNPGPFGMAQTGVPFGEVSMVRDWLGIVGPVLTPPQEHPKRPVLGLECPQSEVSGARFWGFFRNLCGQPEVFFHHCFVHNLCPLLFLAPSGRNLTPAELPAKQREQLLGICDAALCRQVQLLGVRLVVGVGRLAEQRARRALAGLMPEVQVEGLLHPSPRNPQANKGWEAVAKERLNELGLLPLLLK
Description: Inhibition of SMUG1 by quantifying inhibition of SMUG1-mediated cleavage and dissociation of quenched duplex DNA oligonucleotides, measured as fluorescence at 594 nm. To generate a functional strand incision and increase turn-over this assay is coupled to APE1.

[4] = target: T3, Endonuclease 8-like 2 (Homo sapiens) (UniProt Q969S2);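 further: fluorescence at 594 nm reports NEIL2 cutting and release of a quenched double-stranded DNA oligo substrate, reduced signal read as inhibition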
T3 sequence (whole entry): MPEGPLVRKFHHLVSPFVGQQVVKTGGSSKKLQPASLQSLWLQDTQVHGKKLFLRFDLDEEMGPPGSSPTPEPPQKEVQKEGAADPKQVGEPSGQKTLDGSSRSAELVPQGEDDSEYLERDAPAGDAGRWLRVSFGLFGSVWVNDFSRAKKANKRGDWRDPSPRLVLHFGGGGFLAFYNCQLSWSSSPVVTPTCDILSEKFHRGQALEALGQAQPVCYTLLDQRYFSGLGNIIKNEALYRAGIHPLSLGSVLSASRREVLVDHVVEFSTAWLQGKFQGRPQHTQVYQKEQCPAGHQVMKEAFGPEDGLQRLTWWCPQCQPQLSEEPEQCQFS
Description: Inhibition of NEIL2 by quantifying inhibition of NEIL2-mediated cleavage and dissociation of quenched duplex DNA oligonucleotides, measured as fluorescence at 594 nm.

[5] = target: G/T mismatch-specific thymine DNA glycosylase (Homo sapiens) (UniProt Q13569);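 further: human TDG cleavage of quenched duplex DNA oligonucleotides coupled to APE1, strand release read as fluorescence at 594 nm, inhibition of TDG activity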
Description: Inhibition of TDG by quantifying inhibition of TDG-mediated cleavage and dissociation of quenched duplex DNA oligonucleotides, measured as fluorescence at 594 nm. To generate a functional strand incision and increase turn-over this assay is coupled to APE1.

[6] = target: N-glycosylase/DNA lyase (Homo sapiens) (UniProt O15527);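 further: OGG1 cleavage of a quenched duplex DNA oligonucleotide, coupled to APE1 for strand incision, read as fluorescence at 594 nm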
Description: Inhibition of OGG1 by quantifying inhibition of OGG1-mediated cleavage and dissociation of quenched duplex DNA oligonucleotides, measured as fluorescence at 594 nm. To generate a functional strand incision and increase turn-over this assay is coupled to APE1.

[7] = target: Uracil-DNA glycosylase (Homo sapiens) (UniProt P13051);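 further: UNG excision on a quenched double-stranded DNA oligo probe, with APE1 added for strand incision and turnover, read as fluorescence at 594 nm as strands separate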
Sequence of Uracil-DNA glycosylase (Homo sapiens) (P13051 whole entry): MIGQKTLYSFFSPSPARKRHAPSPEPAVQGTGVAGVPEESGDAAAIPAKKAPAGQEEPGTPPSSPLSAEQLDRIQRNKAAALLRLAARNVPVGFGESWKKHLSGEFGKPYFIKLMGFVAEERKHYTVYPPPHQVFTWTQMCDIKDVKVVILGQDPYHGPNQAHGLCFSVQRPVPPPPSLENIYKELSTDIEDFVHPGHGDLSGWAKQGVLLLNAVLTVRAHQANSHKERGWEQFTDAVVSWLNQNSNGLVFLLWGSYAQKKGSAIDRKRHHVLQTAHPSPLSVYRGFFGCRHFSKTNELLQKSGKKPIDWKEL
Description: Inhibition of UNG by quantifying inhibition of UNG-mediated cleavage and dissociation of quenched duplex DNA oligonucleotides, measured as fluorescence at 594 nm. To generate a functional strand incision and increase turn-over this assay is coupled to APE1.

Sequence of N-glycosylase/DNA lyase (Homo sapiens) (O15527 whole entry): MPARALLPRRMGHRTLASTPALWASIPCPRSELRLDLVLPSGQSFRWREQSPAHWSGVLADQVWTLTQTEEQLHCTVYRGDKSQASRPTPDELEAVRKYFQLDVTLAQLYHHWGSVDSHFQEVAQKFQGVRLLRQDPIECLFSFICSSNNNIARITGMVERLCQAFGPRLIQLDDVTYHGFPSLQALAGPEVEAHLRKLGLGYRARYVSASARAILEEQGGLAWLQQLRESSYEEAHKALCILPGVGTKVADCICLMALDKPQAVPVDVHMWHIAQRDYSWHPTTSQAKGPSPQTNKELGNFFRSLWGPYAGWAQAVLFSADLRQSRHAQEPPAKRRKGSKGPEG
Sequence of G/T mismatch-specific thymine DNA glycosylase (Homo sapiens) (Q13569 whole entry): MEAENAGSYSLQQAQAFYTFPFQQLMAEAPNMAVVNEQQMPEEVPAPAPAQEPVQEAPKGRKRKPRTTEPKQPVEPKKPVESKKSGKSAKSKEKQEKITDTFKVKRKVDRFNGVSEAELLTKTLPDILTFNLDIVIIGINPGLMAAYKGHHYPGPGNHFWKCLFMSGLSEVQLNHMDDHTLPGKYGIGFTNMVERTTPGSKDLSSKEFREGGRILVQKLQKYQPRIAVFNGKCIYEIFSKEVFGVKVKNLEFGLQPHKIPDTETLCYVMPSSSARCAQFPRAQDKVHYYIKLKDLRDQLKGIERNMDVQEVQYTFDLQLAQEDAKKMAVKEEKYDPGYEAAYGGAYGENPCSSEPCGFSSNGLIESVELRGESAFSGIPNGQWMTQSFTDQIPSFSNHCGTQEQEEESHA
Sequence of Endonuclease 8-like 1 (Homo sapiens) (Q96FI4 whole entry): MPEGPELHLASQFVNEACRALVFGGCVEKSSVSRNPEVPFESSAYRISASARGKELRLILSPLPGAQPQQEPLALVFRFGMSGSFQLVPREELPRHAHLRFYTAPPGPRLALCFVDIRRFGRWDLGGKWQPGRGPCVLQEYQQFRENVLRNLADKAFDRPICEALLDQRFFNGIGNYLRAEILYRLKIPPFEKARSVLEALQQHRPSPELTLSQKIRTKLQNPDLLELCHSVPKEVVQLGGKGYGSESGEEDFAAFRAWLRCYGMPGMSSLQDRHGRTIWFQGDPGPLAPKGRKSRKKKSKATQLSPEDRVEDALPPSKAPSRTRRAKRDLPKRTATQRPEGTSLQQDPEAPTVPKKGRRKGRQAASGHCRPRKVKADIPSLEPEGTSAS

Row | Structure (SMILES) | inhibition [1] [%] | inhibition [2] [%] | inhibition [3] [%] | inhibition [4] [%] | inhibition [5] [%] | inhibition [6] [%] | inhibition [7] [%]
1 | C[C@@H](NCCCc1cccc(C(F)(F)F)c1)c1cccc2ccccc12 | 1.28 | -5.41 | 8.59 | 13.5 | -8.6 | -4.37 | –
2 | Cc1cn2cc(CC(=O)N3CCC4(CC3)CN(Cc3ccc(-n5nccn5)cc3Cl)C4)nc2s1 | -6.88 | 6.32 | -0.227 | – | -1.26 | -2.88 | –
3 | O=C(NCc1ccc(F)cc1)N1CCN2C(=O)OC(c3ccccc3)(c3ccccc3)C2C1 (centres undefined) | -1.09 | -0.275 | 10.1 | 9.75 | 6.86 | 1.66 | –
4 | Cc1c(C(=O)Nc2ccc(N3C[C@@H](C)O[C@@H](C)C3)nc2)cccc1-c1ccc(OC(F)(F)F)cc1 | -5.39 | -3.21 | -0.0333 | 7.5 | -4.8 | -6.4 | –
5 | CC(C)Oc1ccc(-c2nn([C@@H](C)c3oc4ccc(F)cc4c(=O)c3-c3cccc(F)c3)c3ncnc(N)c23)cc1F | -4.09 | 8.46 | 23.6 | – | 80.6 | 8.77 | 6.08
6 | NCCc1cn(S(=O)(=O)c2c(Cl)nc3sccn23)c2ccccc12 | 6.53 | -1.91 | 3.77 | -1.62 | – | 16.8 | -2.77
7 | CC(C)(C)c1cc(C(C)(C)C)c(NC(=O)c2c[nH]c3ccccc3c2=O)cc1O | 1.34 | 14.6 | 6.2 | 5.25 | – | -6.32 | 1.6
8 | N=C(N)NCCC[C@@H](NC(=O)C(c1ccccc1)c1ccccc1)C(=O)NCc1ccc(CNC(N)=O)cc1 | 11.1 | 11.3 | 0.0989 | -2.13 | – | -4.9 | -1.81
9 | CCCn1c(=O)c2[nH]c(C3CCCC3)nc2n(CCC)c1=O | -2.28 | -3.21 | -9.38 | 1.01 | 6.69 | -9.82 | –
10 | O=C(N[C@H](Cc1ccc(Cl)cc1)C(=O)N1CCC(Cn2cncn2)(C2CCCCC2)CC1)[C@H]1Cc2ccccc2CN1 | 5.49 | -6.04 | 10.8 | 0.159 | – | 6.85 | -1.71
11 | CCN1CCC[C@H]1CNC(=O)c1c(OC)ccc(Br)c1OC | -9.25 | -4.67 | -6.28 | -5.97 | -0.58 | -3.96 | –
12 | Cc1csc(NC(=O)c2cc(F)cc(Oc3cncnc3)c2)n1 | -4.5 | 4.86 | 3.26 | 3.51 | 5.04 | -8.23 | –
13 | O=C1COc2nccc(-c3ccccc3F)c2CN1Cc1cc(C(F)(F)F)cc(C(F)(F)F)c1 | 2.76 | 2.66 | -3.96 | -2.98 | – | -4.66 | –
14 | O=C(Nc1ccc(-n2nc(C(F)(F)F)cc2C(F)(F)F)cc1)c1ccncc1F | 3.86 | -4.39 | -4.65 | -8.25 | – | -5.81 | -0.503
15 | CN1C(=O)[C@@H](NC(=O)c2cc3ccccc3[nH]2)N=C(c2ccccc2)c2ccccc21 | – | 22.4 | -0.954 | – | 4.69 | -4.56 | -5.09
16 | Cc1ccc(F)cc1C(=O)Nc1ccc(C(=O)N2Cc3cccn3Cc3ccccc32)c(Cl)c1 | -2.72 | 18.1 | -2.41 | -4.48 | -0.756 | -6.45 | –
17 | O=C(Nc1ccc(Cl)cc1)Nc1cccc(-c2cccc(N3CCCC3)n2)c1 | 8.84 | -0.275 | -0.712 | -4.23 | – | -1.14 | -9.34
